Experimental data taken from US11725000B2, “Apoptosis inhibitors” (National Institute of Biological Sciences, Beijing, priority 2017, dated 2023).

Tested on: U2OS_Bim cells
Assay: Apoptosis inhibition assay (Bim-induced apoptosis, cell viability by ATP level)
Format: cell-based
Conditions: U2OS_Bim cells; estimated (*Est.) / preliminary results; numbering of Tables 4a/4b; read-out: EC50
Method in brief: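 Apoptosis was triggered by doxycycline (0.1 μg/mL) induction of Bim, one hour after compound addition to U2OS_Bim cells. Survival was measured after 24 h from cellular ATP (CellTiter-Glo), relative to DMSO, with zVAD at 20 μM as rescue control. Data are duplicate means, some estimated from preliminary results.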

Compound | EC50 [µM]
Cc1cc(-c2cc(F)c(=O)n(Cc3ccc4cn(C)nc4c3)c2)nc(S(=O)(=O)CCC(OCc2ccccc2F)c2ccccc2)n1 (stereo not shown) [Compound 343] | 0.001 to 1
Cc1cc(-c2cc(F)c(=O)n(Cc3ccc4c(c3)OCO4)c2)nc(S(=O)(=O)CCC(OCc2ccccc2F)c2ccc3ccoc3c2)n1 (stereo not shown) [Compound 394] | 0.001 to 1
Cc1cc(-c2cc(F)c(=O)n(Cc3ccc4c(c3)OCO4)c2)nc(S(=O)(=O)CCC(OCc2ccccc2F)c2ccco2)n1 (stereo not shown) [Compound 388] | 0.001 to 1
Cc1cc(-c2cc(F)c(=O)n(Cc3ccc4c(c3)OCO4)c2)nc(S(=O)(=O)CCCn2cnc3ccccc32)n1 [Compound 338, 5-(2-((3-(1H-benzo[d]imidazol-1-yl)propyl)sulfonyl)-6-methylpyrimidin-4-yl)-1-(benzo[d][1,3]dioxol-5-ylmethyl)-3-fluoropyridin-2 (1H)-one] | 0.001 to 1
Cc1cc(-c2cc(F)c(=O)n(Cc3ccc4c(c3)OCO4)c2)nc(S(=O)(=O)CCCN(c2ccccc2)C2CC2)n1 [Compound 378] | 0.001 to 1
Cc1cc(-c2ccc(=O)n(Cc3ccc4c(c3)OCCO4)n2)nc(S(=O)(=O)CCC(OCc2ccccc2F)c2ccccc2)n1 (stereo not shown) [Compound 368] | 0.001 to 1
Cc1cc(-c2cc(F)c(=O)n(Cc3ccc4nnn(C)c4c3)c2)nc(S(=O)(=O)CCCN2C(=O)Cc3ccccc32)n1 [Compound 363] | 0.001 to 1
Cc1cc(-c2cc(F)c(=O)n(Cc3ccc4nnn(C)c4c3)c2)nc(S(=O)(=O)CCCN(c2ccccc2)C2CC2)n1 [Compound 381] | 0.001 to 1
Cc1cc(-c2cc(F)c(=O)n(Cc3ccc4ccn(C)c4c3)c2)nc(S(=O)(=O)CCC(OCc2ccccc2F)c2ccccc2)n1 (stereo not shown) [Compound 349] | 0.001 to 1
Cc1cc(-c2cc(F)c(=O)n(Cc3ccc4c(c3)N(C)CO4)c2)nc(S(=O)(=O)CCC(OCc2ccccc2F)c2ccccc2)n1 (stereo not shown) [Compound 354] | 0.001 to 1
Cc1cc(-c2cc(F)c(=O)n(Cc3ccc4c(c3)OCO4)c2)nc(S(=O)(=O)CCC(OCc2ccccc2F)c2ccc3ncn(C)c3c2)n1 (stereo not shown) [Compound 393] | 0.001 to 1
Cc1cc(-c2cc(F)c(=O)n(Cc3ccc4c(c3)OCO4)c2)nc(S(=O)(=O)CCC(OCC2CCC2)c2ccccc2)n1 (stereo not shown) [Compound 415] | 0.001 to 1
Cc1cc(-c2cc(F)c(=O)n(Cc3ccc4c(c3)OCO4)c2)nc(S(=O)(=O)CCC(OCC2CN2C)c2ccccc2)n1 (stereo not shown) [Compound 420] | 0.001 to 1
Cc1cc(-c2cc(F)c(=O)n(Cc3ccc4c(c3)OCO4)c2)nc(S(=O)(=O)CCC(OCc2ccccc2F)c2cccnc2)n1 (stereo not shown) [Compound 384] | 0.001 to 1
Cc1cc(-c2cc(F)c(=O)n(Cc3ccc4c(c3)OCO4)c2)nc(S(=O)(=O)CCC(OCc2ccccc2F)c2cccn2C)n1 (stereo not shown) [Compound 386] | 0.001 to 1
Cc1cc(-c2cc(F)c(=O)n(Cc3ccn4ccnc4c3)c2)nc(S(=O)(=O)CCC(OCc2ccccc2F)c2ccccc2)n1 (stereo not shown) [Compound 340] | 0.001 to 1
Cc1cc(-c2cc(F)c(=O)n(Cc3ccc4c(c3)OCO4)c2)nc(S(=O)(=O)CCC(OCc2ccccc2F)C2CCCOC2)n1 (stereo not shown) [Compound 399] | 0.001 to 1

Same assay, conditions: U2OS_Bim cells; estimated based on preliminary results; numbering of Tables 4a/4b; read-out: EC50

Compound | EC50 [µM]
COc1ccc(Cn2cc(-c3cc(C(F)(F)F)nc(S(=O)(=O)Cc4cccnc4)n3)ccc2=O)cc1OC [Compound 188] | < 10
C[S+]([O-])c1nc(-c2ccc(=O)n(Cc3ccc4ocnc4c3)c2)cc(C(F)(F)F)n1 (stereo not shown) [Compound 227] | < 10
C[S+]([O-])c1nc(-c2ccc(=O)n(Cc3ccc4ncccc4c3)c2)cc(C(F)(F)F)n1 (stereo not shown) [Compound 247] | < 10
CS(=O)(=O)c1nc(-c2ccc(=O)n(Cc3ccc4c(c3)NCCO4)c2)cc(C(F)(F)F)n1 [Compound 242] | < 10
CS(=O)(=O)c1nc(-c2ccc(=O)n(Cc3ccc4c(c3)OCCN4)c2)cc(C(F)(F)F)n1 [Compound 240] | < 10
COc1ccc(Cn2cc(-c3cc(-c4ccco4)nc([S+](C)[O-])n3)ccc2=O)cc1OC (stereo not shown) [Compound 207] | < 10
CS(=O)(=O)c1nc(-c2ccc(=O)n(Cc3ccc4[nH]cnc4c3)c2)cc(C(F)(F)F)n1 [Compound 228] | < 10
C[S+]([O-])c1nc(-c2ccc(=O)n(Cc3ccc4c(c3)OCCN4)c2)cc(C(F)(F)F)n1 (stereo not shown) [Compound 241] | < 10

Same assay, conditions: U2OS_Bim cells; means of duplicates; numbering of Tables 4a/4b; read-out: EC50

Compound | EC50 [µM]
[O-][S+](CCC(OCc1ccccc1)c1ccccc1)c1nc(-c2cccs2)cc(C(F)(F)F)n1 (stereo not shown) [Compound 290, 2-(3-(benzyloxy)-3-phenylpropylsulfinyl)-4-(thiophen-2-yl)-6-(trifluoromethyl)pyrimidine] | 1 to 10
Cc1cc(-c2cc(F)c(=O)n(Cc3ccc4c(c3)no[n+]4[O-])c2)nc(S(=O)(=O)CCC(OCc2ccccc2F)c2ccccc2)n1 (stereo not shown) [Compound 323] | 0.001 to 1
COc1ccc(Cn2cc(-c3nc([S+]([O-])CCC(OCc4ccccc4F)c4ccccc4)nc4sccc34)cc(F)c2=O)cc1F (stereo not shown) [Compound 301, 3-fluoro-1-(3-fluoro-4-methoxybenzyl)-5-(2-(3-(2-fluorobenzyloxy)-3-phenylpropylsulfinyl)thieno[2,3-d]pyrimidin-4-yl)pyridin-2 (1H)-one] | 1 to 10
C#CCn1cc(-c2cc(C(F)(F)F)nc(S(C)(=O)=O)n2)ccc1=O [Compound 100, 5-(2-(methylsulfonyl)-6-(trifluoromethyl)pyrimidin-4-yl)-1-(prop-2-yn-1-yl) pyridin-2 (1H)-one] | 0.001 to 1
COc1ccc(Cn2cccc2-c2cc(C(F)(F)F)nc(S(C)(=O)=O)n2)cc1OC [Compound 85, 4-(1-(3,4-dimethoxybenzyl)-1H-pyrrol-2-yl)-2-(methylsulfonyl)-6-(trifluoromethyl)pyrimidine] | 1 to 10
COc1ccc(Cn2cc(-c3nc(S(=O)(=O)CCC(OCc4ccccc4F)c4ccccc4)nc4sccc34)cc(F)c2=O)cc1F (stereo not shown) [Compound 302, 3-fluoro-1-(3-fluoro-4-methoxybenzyl)-5-(2-(3-(2-fluorobenzyloxy)-3-phenylpropylsulfonyl)thieno[2,3-d]pyrimidin-4-yl)pyridin-2 (1H)-one] | 0.001 to 1
COc1ccc(Cn2cc(-c3cc(C(F)(F)F)nc(S(=O)(=O)CCCC(=O)N4CCCC4)n3)ccc2=O)cc1OC [Compound 152, 1-(3,4-dimethoxybenzyl)-5-(2-((4-oxo-4-(pyrrolidin-1-yl)butyl)sulfonyl)-6-(trifluoromethyl)pyrimidin-4-yl)pyridin-2 (1H)-one] | 0.001 to 1
CS(=O)(=O)c1nc(-c2cccs2)cc(N2CCCC2=O)n1 [Compound 38, 1-(2-(methylsulfonyl)-6-(thiophen-2-yl)pyrimidin-4-yl)pyrrolidin-2-one] | < 100
CS(=O)(=O)c1nc(-c2ccc(=O)n(Cc3ccccc3Cl)c2)cc(C(F)(F)F)n1 [Compound 104, 1-(2-chlorobenzyl)-5-(2-(methylsulfonyl)-6-(trifluoromethyl)pyrimidin-4-yl)pyridin-2 (1H)-one] | 0.001 to 1
C[S+]([O-])c1nc(-c2ccn(Cc3cccc(Cl)c3)c2)cc(C(F)(F)F)n1 (stereo not shown) [Compound 94, 4-(1-(3-chlorobenzyl)-1H-pyrrol-3-yl)-2-(methylsulfinyl)-6-(trifluoromethyl)pyrimidine] | < 100
C#Cc1cccc(Cn2cc(-c3cc(C(F)(F)F)nc(S(C)(=O)=O)n3)ccc2=O)c1 [Compound 120, 1-(3-ethynylbenzyl)-5-(2-(methylsulfonyl)-6-(trifluoromethyl)pyrimidin-4-yl) pyridin-2 (1H)-one] | 0.001 to 1
CS(=O)(=O)c1nc(-c2cccc(Cn3ccccc3=O)c2)cc(C(F)(F)F)n1 [Compound 70, 1-(3-(2-(methylsulfonyl)-6-(trifluoromethyl)pyrimidin-4-yl)benzyl) pyridin-2 (1H)-one] | 1 to 10
COC(=O)c1ccccc1-c1cc(C(F)(F)F)nc(S(C)(=O)=O)n1 [Compound 58, methyl 2-(2-(methylsulfonyl)-6-(trifluoromethyl)pyrimidin-4-yl)benzoate] | < 100
CNC(=O)c1ccccc1-c1cc(C(F)(F)F)nc(S(C)(=O)=O)n1 [Compound 67, N-methyl-2-(2-(methylsulfonyl)-6-(trifluoromethyl)pyrimidin-4-yl)benzamide] | < 100
COc1ccc(Cn2cc(-c3cc(C(F)F)nc(S(C)(=O)=O)n3)cc(F)c2=O)cc1OC [Compound 165, 5-(6-(difluoromethyl)-2-(methylsulfonyl)pyrimidin-4-yl)-1-(3,4-dimethoxybenzyl)-3-fluoropyridin-2 (1H)-one] | 0.001 to 1
C[S+]([O-])c1nc(-c2ccc[nH]c2=O)cc(C(F)(F)F)n1 (stereo not shown) [Compound 81, 3-(2-(methylsulfinyl)-6-(trifluoromethyl)pyrimidin-4-yl)pyridin-2 (1H)-one] | < 100
CS(=O)(=O)c1nc(-c2cccc3ccccc23)cc(C(F)(F)F)n1 [Compound 76, 2-(methylsulfonyl)-4-(naphthalen-1-yl)-6-(trifluoromethyl)pyrimidine] | 1 to 20
COc1ccc(Cn2cc(-c3cc(C(F)F)nc(S(=O)(=O)CCC(OCc4ccccc4)c4ccccc4)n3)ccc2=O)cc1OC (stereo not shown) [Compound 278, 5-(2-((3-(benzyloxy)-3-phenylpropyl)sulfonyl)-6-(difluoromethyl)pyrimidin-4-yl)-1-(3,4-dimethoxybenzyl)pyridin-2 (1H)-one] | 0.001 to 1
CS(=O)(=O)c1nc(-c2ccn(Cc3cccc(Cl)c3)c2)cc(C(F)(F)F)n1 [Compound 93, 4-(1-(3-chlorobenzyl)-1H-pyrrol-3-yl)-2-(methylsulfonyl)-6-(trifluoromethyl)pyrimidine] | < 100
COc1ccc(Cn2cc(-c3cc(C(F)F)nc(S(=O)(=O)CCC(OCc4ccc(F)cc4F)c4ccccc4)n3)ccc2=O)cc1F (stereo not shown) [Compound 286, 5-(2-(3-(2,4-difluorobenzyloxy)-3-phenylpropylsulfonyl)-6-(difluoromethyl)pyrimidin-4-yl)-1-(3-fluoro-4-methoxybenzyl)pyridin-2 (1H)-one] | 0.001 to 1
Cc1ccccc1-c1cc(C(F)(F)F)nc(S(C)(=O)=O)n1 [Compound 46, 2-(methylsulfonyl)-4-(o-tolyl)-6-(trifluoromethyl)pyrimidine] | 1 to 20
